Laboratory results: patent publication US8999930B2, “Soluble hydrophobic core carrier compositions for delivery of therapeutic agents, methods of making and using the same” (PharmaIN Corporation, priority 2008, dated 2015)
Where two headings read alike, the source gives them in different places. Where a SMILES comes first, the peptide text is derived from it. Bridges are numbered along the chain shown (N, C = ends).

Assay: Binding of load molecules to 20PLPEG555C18 carrier (100 kDa filtration, free load by HPLC, Scatchard plot)
Details: for binding affinity to carrier, in words: strong = Kd less than 100 uM, carrier 20 kDa polylysine, 55% 5 kDa MPEGsuccinate, remainder stearic acid
[1] = Kd to the 20PLPRG555C18, Table 4, read-out: Dissociation Constant (Kd)

Method: Load molecules of various concentrations were added to the tubes so that the corresponding weight of load molecules will be between 2 to 30% of the weight of the carrier. To each tube, 25 ul of 10× Phosphate buffered saline was added and the total volume of the solution was made up to 250 ul. The solutions were incubated for 2 hours, followed by filtration through a 100 kDa molecular weight cut-off filter made up of regenerated cellulose (Microcon Ultracell YM-100; Millipore, Bedford, Mass.). The free unbound load molecules in the filtrate were analyzed by reverse phase HPLC using the conditions described above to generate Table 3. The total amount of load molecule loaded or the control is represented by the filtrate of the solution without the carrier. The amount of load molecules bound to the carrier is represented by the difference in the amount of load molecules between the filtrate without the carrier and the filtrate with the carrier. Prior to this analysis, the background filter binding was determined and accounted for whenever significant filter binding was found.

Row | Molecule | Kd (33 mg/ml (10 uM) of Carrier, read-out: Kd (Scatchard plot)) [µM] | Kd [1] [µM] | binding affinity to carrier, in words | Kd (Ten mg/ml (30 uM) of Carrier, read-out: Kd (Scatchard plot)) [µM] | Kd (Ten mg/ml (30 uM) of Carrier loaded with various concentration of doxorubicin, read-out: apparent Kd (Scatchard plot)) [µM] | binding affinity to carrier, in words (listed as VIP)
1 | Leptin: Leptin (16 kDa), load molecule | 0.7 | < 0.8 | binds Leptin with strong affinity |  |  | 
2 | NCCCC[C@H](NC(=O)[C@@H]1CCCN1C(=O)[C@@H]1CSSC[C@H](NC(=O)CNC(=O)CNC(=O)CN)C(=O)N[C@@H](Cc2ccc(O)cc2)C(=O)N[C@@H](Cc2ccccc2)C(=O)N[C@@H](CCC(N)=O)C(=O)N[C@@H](CC(N)=O)C(=O)N1)C(=O)NCC(N)=O [Terlipressin, reference compound] (H-GGGCYFQNCPKG-NH2; disulfide 4-9) |  | > 100 | does not bind Terlipressin with strong affinity |  |  | 
3 | Glucagon Like Peptide 2: Glucagon Like Peptide 2 (GLP-2; 3 kDa), load molecule |  | < 0.5 |  |  |  | 
4 | Human Growth Hormone: recombinant human growth hormone (26 kDa), load molecule |  | > 100 | does not bind hGH with strong affinity |  |  | 
5 | Islet Amyloid Polypeptide: Islet Amyloid Polypeptide (IAPP or Amylin; 3.6 kDa), load molecule (KCNTATCATQRLANFLVHSSNNFGAILSSTNVGSNTY; Islet amyloid polypeptide; UniProt P10997 34-70, looked up) |  | < 900 | binds IAPP with strong affinity | 0.9 |  | 
6 | COc1cccc2c1C(=O)c1c(O)c3c(c(O)c1C2=O)C[C@@](O)(C(=O)CO)C[C@@H]3O[C@H]1C[C@H](N)[C@H](O)[C@H](C)O1 [Doxorubicin, reference compound] |  | > 100 | did not bind with strong affinity |  | 315 | 
7 | Vasoactive Intestinal Peptide: Vasoactive Intestinal Peptide (VIP), load molecule |  |  | high affinity |  |  | binds VIP with strong affinity
